From US12606567B2, “Salts and forms of a WEE1 inhibitor” (Recurium IP Holdings, LLC, priority 2020, dated 2026)
Values after ≈ are worked out from the molar mass of the structure shown. Where a name gives a salt, the structure may show the parent alone.

Legend:
Type in all cases: physicochemical
[1] = Equilibrium solubility in SGF, H2O, FaSSIF and FeSSIF, slurry at 37° C. for 24 hrs; conditions: for Solubility / pH of supernatant / Form of residual solid (XRPD): 37° C., 24 hrs
Protocol: About 10-50 mg of each sample was weighed into 1.0 mL of each medium followed by slurry at 37° C. for 24 hrs. The samples were centrifuged and filtered using 0.45 μm PTFE filter. The solids were tested by XRPD and the supernatants were tested by HPLC and pH.

[2] = Solid-state stability of the forms under storage (HPLC purity, XRPD form); conditions: for Form change on storage: all tested stability conditions
Protocol: It only slightly degraded at 60° C. after 2 weeks and at 80° C. after 3 days.

[3] = Hygroscopicity by DVS isotherm at 25° C. between 0% RH and 95% RH, XRPD after DVS; conditions: for Water uptake (DVS): 25° C./80% RH; for Form change after DVS test (XRPD): after DVS at 25° C., 0% RH-95% RH
Protocol: DVS data was measured via a SMS (Surface Measurement Systems) DVS Intrinsic. The relative humidity at 25° C. was calibrated against the deliquescence point of LiCl, Mg(NO3)2 and KCl.

[4] = Thermodynamic stability compared with the amorphous freebase (TGA); conditions: compared with amorphous freebase of Compound A
Protocol: The TGA curve of the amorphous freebase of Compound A indicated a substantial and gradual weight loss starting at 30° C. and continuing to 150° C. with a total of about 17% loss.
TGA data were collected using a TA Q5000/Discovery 5500 TGA from TA Instruments. DSC was performed using a TA Q2000/Discovery 2500 DSC from TA Instruments.

[5] = Initial, for the 25° C./60% RH, 40° C./75% RH and 60° C. series

C=CCn1c(=O)c2cnc(Nc3ccc(N4CCN(C)CC4)cc3)nc2n1-c1ccc2c(n1)[C@@](O)(CC)CC2 [Adipate salt Form A]
Solubility ([1]; FaSSIF): 30800 µg/mL
pH of supernatant ([1]; FaSSIF): 4.8
Form of residual solid (XRPD) ([1]; FeSSIF): Adipate Salt Form A
Solubility ([1]; FeSSIF): 5600 µg/mL
pH of supernatant ([1]; FeSSIF): 4.8
Form of residual solid (XRPD) ([1]; H2O): Adipate Salt Form A
Solubility ([1]; H2O): 25500 µg/mL
pH of supernatant ([1]; H2O): 4.7
Form of residual solid (XRPD) ([1]; SGF): Adipate Salt Form A
Solubility ([1]; SGF): 34100 µg/mL
pH of supernatant ([1]; SGF): 4.4
Solubility comparison ([1]; SGF, H2O, FaSSIF, FeSSIF): higher solubility than freebase Form E of Compound A
Solid state stability ([2]; 4 weeks at 25° C./60% RH and 40° C./75% RH, 2 weeks at 60° C., 3 days at 80° C.): stable
Purity (area %) ([2]; 25° C./60% RH, 2 week): 98.85 area %
Purity/Initial (%) ([2]; 25° C./60% RH, 2 week): 100.1%
Purity (area %) ([2]; 25° C./60% RH, 4 week): 98.91 area %
Purity/Initial (%) ([2]; 25° C./60% RH, 4 week): 100.2%
Purity (area %) ([2]; 40° C./75% RH, 2 week): 98.82 area %
Purity/Initial (%) ([2]; 40° C./75% RH, 2 week): 100.1%
Purity (area %) ([2]; 40° C./75% RH, 4 week): 98.85 area %
Purity/Initial (%) ([2]; 40° C./75% RH, 4 week): 100.1%
Purity (area %) ([2]; 60° C., 2 week): 98.25 area %
Purity/Initial (%) ([2]; 60° C., 2 week): 99.5%
Purity (area %) ([2]; 60° C., 4 week): 97.80 area %
Purity/Initial (%) ([2]; 60° C., 4 week): 99.1%
Purity (area %) ([2]; 80° C., 1 day): 99.02 area %
Purity/Initial (%) ([2]; 80° C., 1 day): 100.0%
Purity (area %) ([2]; 80° C., 3 day): 98.77 area %
Purity/Initial (%) ([2]; 80° C., 3 day): 99.7%
Purity (area %) ([2]; 80° C., 7 day): 98.44 area %
Purity/Initial (%) ([2]; 80° C., 7 day): 99.4%
Purity (area %) [2, 5]: 98.72 area %
Purity (area %) ([2]; Initial, for the 80° C. series): 99.03 area %
Degradation ([2]; after 4 weeks at 60° C.): 0.9%
Degradation ([2]; after 7 days at 80° C.): 0.6%
Form change on storage [2]: no form change
Water uptake (DVS) [3]: 2.2%
Form change after DVS test (XRPD) [3]: No form change
Thermodynamic stability [4]: more thermodynamically stable than the amorphous freebase

C=CCn1c(=O)c2cnc(Nc3ccc(N4CCN(C)CC4)cc3)nc2n1-c1ccc2c(n1)[C@@](O)(CC)CC2 [Freebase Form E]
Form of residual solid (XRPD) ([1]; FaSSIF): Freebase Form E
Solubility ([1]; FaSSIF): 1400 µg/mL (≈ 2.66 mM)
pH of supernatant ([1]; FaSSIF): 6.8
Form of residual solid (XRPD) ([1]; FeSSIF): Amorphous
Solubility ([1]; FeSSIF): 2600 µg/mL (≈ 4.94 mM)
pH of supernatant ([1]; FeSSIF): 5.4
Form of residual solid (XRPD) ([1]; H2O): Freebase Form E
Solubility ([1]; H2O): 99 µg/mL (≈ 0.188 mM)
pH of supernatant ([1]; H2O): 8.4
Form of residual solid (XRPD) ([1]; SGF): Freebase Form E
Solubility ([1]; SGF): 9000 µg/mL (≈ 17.1 mM)
pH of supernatant ([1]; SGF): 6.6
Solid state stability ([2]; 4 weeks at 25° C./60% RH, 40° C./75% RH and 60° C., 7 days at 80° C.): stable
Purity (area %) ([2]; 25° C./60% RH, 2 week): 99.37 area %
Purity/Initial (%) ([2]; 25° C./60% RH, 2 week): 100.0%
Purity (area %) ([2]; 25° C./60% RH, 4 week): 99.39 area %
Purity/Initial (%) ([2]; 25° C./60% RH, 4 week): 100.0%
Purity (area %) ([2]; 40° C./75% RH, 2 week): 99.45 area %
Purity/Initial (%) ([2]; 40° C./75% RH, 2 week): 100.1%
Purity (area %) ([2]; 40° C./75% RH, 4 week): 99.45 area %
Purity/Initial (%) ([2]; 40° C./75% RH, 4 week): 100.1%
Purity (area %) ([2]; 60° C., 2 week): 99.35 area %
Purity/Initial (%) ([2]; 60° C., 2 week): 100.0%
Purity (area %) ([2]; 60° C., 4 week): 99.16 area %
Purity/Initial (%) ([2]; 60° C., 4 week): 99.8%
Purity (area %) ([2]; 80° C., 1 day): 99.48 area %
Purity/Initial (%) ([2]; 80° C., 1 day): 100.0%
Purity (area %) ([2]; 80° C., 3 day): 99.31 area %
Purity/Initial (%) ([2]; 80° C., 3 day): 99.9%
Purity (area %) ([2]; 80° C., 7 day): 99.12 area %
Purity/Initial (%) ([2]; 80° C., 7 day): 99.7%
Purity (area %) [2, 5]: 99.35 area %
Purity (area %) ([2]; Initial, for the 80° C. series): 99.44 area %
Form change on storage [2]: no form change
Water uptake (DVS) ([3]; listed as freebase Form E of Compound A): 0.6%
Form change after DVS test (XRPD) [3]: No form change
Thermodynamic stability [4]: more thermodynamically stable than the amorphous freebase

C=CCn1c(=O)c2cnc(Nc3ccc(N4CCN(C)CC4)cc3)nc2n1-c1ccc2c(n1)[C@@](O)(CC)CC2 [freebase Form J]
Thermodynamic stability [4]: more thermodynamically stable than the amorphous freebase
